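Dose response: 5 concentrations. Exposure: 48 h. Format: 96-well plates. Endpoint: linear interpolation; highest concentration if not reached. GI50 marks 50% less growth. At the TGI there is no net growth.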
Key:
Experiment in all cases: NCI tumour cell line growth inhibition, 48 h
HOP-62 NSCLC = tested on: HOP-62 NSCLC
LOX IMVI melanoma = tested on: LOX IMVI melanoma
SNB-75 CNS = tested on: SNB-75 CNS
MCF7 breast = tested on: MCF7 breast
NCI-H23 lung = tested on: NCI-H23 lung
HCC-2998 colon = tested on: HCC-2998 colon
COLO 205 colon = tested on: COLO 205 colon
ACHN renal = tested on: ACHN renal
HT29 colon = tested on: HT29 colon
RXF 393 renal = tested on: RXF 393 renal
RPMI-8226 leukemia = tested on: RPMI-8226 leukemia
MALME-3M melanoma = tested on: MALME-3M melanoma
OVCAR-5 ovarian = tested on: OVCAR-5 ovarian
SK-MEL-2 melanoma = tested on: SK-MEL-2 melanoma
SNB-19 CNS = tested on: SNB-19 CNS
SK-OV-3 ovarian = tested on: SK-OV-3 ovarian
SK-MEL-28 melanoma = tested on: SK-MEL-28 melanoma
CCRF-CEM leukemia = tested on: CCRF-CEM leukemia
UACC-257 melanoma = tested on: UACC-257 melanoma
UACC-62 melanoma = tested on: UACC-62 melanoma
HOP-92 NSCLC = tested on: HOP-92 NSCLC
A498 renal = tested on: A498 renal
SF-295 CNS = tested on: SF-295 CNS
786-0 renal = tested on: 786-0 renal
IGROV1 ovarian = tested on: IGROV1 ovarian
SW-620 colon = tested on: SW-620 colon
OVCAR-3 ovarian = tested on: OVCAR-3 ovarian
PC-3 prostate = tested on: PC-3 prostate
K-562 leukemia = tested on: K-562 leukemia
SF-268 CNS = tested on: SF-268 CNS
SF-539 CNS = tested on: SF-539 CNS
SR leukemia = tested on: SR leukemia
KM12 colon = tested on: KM12 colon
MOLT-4 leukemia = tested on: MOLT-4 leukemia
HL-60(TB) leukemia = tested on: HL-60(TB) leukemia
NCI/ADR-RES ovarian = tested on: NCI/ADR-RES ovarian
HS 578T breast = tested on: HS 578T breast
DU-145 prostate = tested on: DU-145 prostate
NCI-H226 lung = tested on: NCI-H226 lung
CAKI-1 renal = tested on: CAKI-1 renal
OVCAR-8 ovarian = tested on: OVCAR-8 ovarian
HCT-116 colon = tested on: HCT-116 colon
HCT-15 colon = tested on: HCT-15 colon
OVCAR-4 ovarian = tested on: OVCAR-4 ovarian
NCI-H522 lung = tested on: NCI-H522 lung
UO-31 renal = tested on: UO-31 renal
M14 melanoma = tested on: M14 melanoma
NCI-H460 lung = tested on: NCI-H460 lung
T-47D breast = tested on: T-47D breast
MDA-MB-231 breast = tested on: MDA-MB-231 breast
SN12C renal = tested on: SN12C renal
BT-549 breast = tested on: BT-549 breast
A549 NSCLC = tested on: A549 NSCLC
U251 CNS = tested on: U251 CNS
MDA-MB-435 = tested on: MDA-MB-435
SK-MEL-5 melanoma = tested on: SK-MEL-5 melanoma
TK-10 renal = tested on: TK-10 renal

O=C(/C=C\c1ccnc2ccccc12)c1ccc([N+](=O)[O-])cc1
GI50 (HOP-62 NSCLC): > 38.4 µM
TGI (HOP-62 NSCLC): > 80.1 µM
GI50 (LOX IMVI melanoma): 1.83 µM
TGI (LOX IMVI melanoma): 3.75 µM
GI50 (SNB-75 CNS): > 75.4 µM
TGI (SNB-75 CNS): > 100 µM
GI50 (MCF7 breast): 1.64 µM
TGI (MCF7 breast): 3.54 µM
GI50 (NCI-H23 lung): 5.54 µM
TGI (NCI-H23 lung): 59.5 µM
GI50 (HCC-2998 colon): 6.05 µM
TGI (HCC-2998 colon): 29.9 µM
GI50 (COLO 205 colon): 23.1 µM
TGI (COLO 205 colon): > 100 µM
GI50 (ACHN renal): 14.6 µM
TGI (ACHN renal): > 100 µM
GI50 (HT29 colon): 2.36 µM
TGI (HT29 colon): 5.37 µM
GI50 (RXF 393 renal): 12 µM
TGI (RXF 393 renal): > 66 µM
GI50 (RPMI-8226 leukemia): 1.87 µM
TGI (RPMI-8226 leukemia): 4.6 µM
GI50 (MALME-3M melanoma): 57.2 µM
TGI (MALME-3M melanoma): > 100 µM
GI50 (OVCAR-5 ovarian): > 60.6 µM
TGI (OVCAR-5 ovarian): > 100 µM
GI50 (SK-MEL-2 melanoma): > 100 µM
TGI (SK-MEL-2 melanoma): > 100 µM
GI50 (SNB-19 CNS): 14.8 µM
TGI (SNB-19 CNS): > 68.3 µM
GI50 (SK-OV-3 ovarian): > 100 µM
TGI (SK-OV-3 ovarian): > 100 µM
GI50 (SK-MEL-28 melanoma): 20.5 µM
TGI (SK-MEL-28 melanoma): > 83.2 µM
GI50 (CCRF-CEM leukemia): 3.41 µM
TGI (CCRF-CEM leukemia): > 48.1 µM
GI50 (UACC-257 melanoma): 8.8 µM
TGI (UACC-257 melanoma): > 60.7 µM
GI50 (UACC-62 melanoma): 12.5 µM
TGI (UACC-62 melanoma): > 86.3 µM
GI50 (HOP-92 NSCLC): 3.99 µM
TGI (HOP-92 NSCLC): > 65.3 µM
GI50 (A498 renal): 1.68 µM
TGI (A498 renal): > 100 µM
GI50 (SF-295 CNS): 23.4 µM
TGI (SF-295 CNS): > 100 µM
GI50 (786-0 renal): 16.9 µM
TGI (786-0 renal): > 89 µM
GI50 (IGROV1 ovarian): 16 µM
TGI (IGROV1 ovarian): > 79.6 µM
GI50 (SW-620 colon): 1.99 µM
TGI (SW-620 colon): 4.79 µM
GI50 (OVCAR-3 ovarian): 7.23 µM
TGI (OVCAR-3 ovarian): 43.2 µM
GI50 (PC-3 prostate): 8.62 µM
TGI (PC-3 prostate): 48.2 µM
GI50 (K-562 leukemia): 2.47 µM
TGI (K-562 leukemia): 18 µM
GI50 (SF-268 CNS): 21.6 µM
TGI (SF-268 CNS): > 82.8 µM
GI50 (SF-539 CNS): 6.82 µM
TGI (SF-539 CNS): 24.9 µM
GI50 (SR leukemia): 2.28 µM
TGI (SR leukemia): 7.37 µM
GI50 (KM12 colon): 3 µM
TGI (KM12 colon): 11.1 µM
GI50 (MOLT-4 leukemia): 4.21 µM
TGI (MOLT-4 leukemia): > 83 µM
GI50 (HL-60(TB) leukemia): 5.89 µM
TGI (HL-60(TB) leukemia): > 75.5 µM
GI50 (NCI/ADR-RES ovarian): 8.68 µM
TGI (NCI/ADR-RES ovarian): > 100 µM
GI50 (HS 578T breast): 27.3 µM
TGI (HS 578T breast): > 96 µM
GI50 (DU-145 prostate): 43.1 µM
TGI (DU-145 prostate): > 100 µM
GI50 (NCI-H226 lung): 6.35 µM
TGI (NCI-H226 lung): > 100 µM
GI50 (CAKI-1 renal): 13.2 µM
TGI (CAKI-1 renal): > 100 µM
GI50 (OVCAR-8 ovarian): 12.4 µM
TGI (OVCAR-8 ovarian): > 100 µM
GI50 (HCT-116 colon): 1.59 µM
TGI (HCT-116 colon): 3.15 µM
GI50 (HCT-15 colon): 2.55 µM
TGI (HCT-15 colon): 9.2 µM
GI50 (OVCAR-4 ovarian): 3.71 µM
TGI (OVCAR-4 ovarian): > 100 µM
GI50 (NCI-H522 lung): 15.2 µM
TGI (NCI-H522 lung): > 100 µM
GI50 (UO-31 renal): 4.99 µM
TGI (UO-31 renal): > 50.7 µM
GI50 (M14 melanoma): 4.94 µM
TGI (M14 melanoma): 19.4 µM
GI50 (NCI-H460 lung): > 68.1 µM
TGI (NCI-H460 lung): > 100 µM
GI50 (T-47D breast): 4.19 µM
TGI (T-47D breast): > 66.4 µM
GI50 (MDA-MB-231 breast): 8.63 µM
TGI (MDA-MB-231 breast): 38.7 µM
GI50 (SN12C renal): 16.1 µM
TGI (SN12C renal): > 64.2 µM
GI50 (BT-549 breast): 11.2 µM
TGI (BT-549 breast): 27.4 µM
GI50 (A549 NSCLC): > 41.1 µM
TGI (A549 NSCLC): > 100 µM
GI50 (U251 CNS): 10.6 µM
TGI (U251 CNS): 41.6 µM
GI50 (MDA-MB-435): 2.24 µM
TGI (MDA-MB-435): 6.55 µM
GI50 (SK-MEL-5 melanoma): 3.63 µM
TGI (SK-MEL-5 melanoma): 22.3 µM
GI50 (TK-10 renal): 21.3 µM
TGI (TK-10 renal): > 100 µM

Source: PubChem BioAssay (NCI)
